Structures are written as SMILES.

For the test, the target named is T1, p53 Y220C (Homo sapiens, UniProt P04637, Y220C).
T1 construct: The recombinant protein was a truncation mutant containing only amino acids 94-312 of p53; made in house; host or cells: E. coli
T1 sequence (P04637 94-312, change not shown): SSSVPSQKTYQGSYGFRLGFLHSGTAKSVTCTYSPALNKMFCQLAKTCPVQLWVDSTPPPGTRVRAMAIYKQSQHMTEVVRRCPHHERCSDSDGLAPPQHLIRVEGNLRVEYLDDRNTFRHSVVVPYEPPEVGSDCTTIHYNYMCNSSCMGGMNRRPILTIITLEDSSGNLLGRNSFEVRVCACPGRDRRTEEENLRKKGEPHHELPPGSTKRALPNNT
The test is described as follows: In vitro DNA binding activity assay (HTRF / TR-FRET): stabilization of p53 Y220C and increase of its DNA binding activity. As to conditions: recombinant His-tagged p53 Y220C DNA binding domain (aa 94-312), biotin-labeled consensus DNA, incubated at 27° C. or 29° C. for 60 min. It counts as biochemical. The method, boiled down:
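Compound effect on DNA binding of recombinant His-p53 Y220C (E. coli) to biotin-labeled consensus DNA, expressed as SC150, the concentration giving 50% increase versus untreated. Serial 3-fold DMSO dilutions of 4.5 mM stocks; room-temperature steps of 15 then 20 min.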
On the technique in general: TR-FRET usually uses a lanthanide donor and a delayed reading to cut background.
Regarding `CCS(=O)(=O)c1ccc(NCC#Cc2cc3c(N[C@H]4CC[C@@H](N(C)C)CC4)cccc3n2CC(F)(F)F)c(OC)c1` [Compound 120A, (1S,4S)—N^4-[2-(3-{[4-(ethanesulfonyl)-2-methoxyphenyl]amino}prop-1-yn-1-yl)-1-(2,2,2-trifluoroethyl)-1H-indol-4-yl]-N^1,N^1-dimethylcyclohexane-1,4-diamine], the “SC150 (concentration of the compound required to increase the DNA binding activity by 50%)” value is reported as “+ (+ = 0 μM ≤ SC150 < 0.05 μM)”.
For `CNc1cc(S(C)(=O)=O)ccc1OCC#Cc1cc2c(NC3CCN(CC(O)COC)CC3)cccc2n1CC(F)(F)F` (stereo not drawn) [Compound 651A, l-{4-[(2-{3-[4-methanesulfonyl-2-(methylamino)phenoxy]prop-1-yn-1-yl}-1-(2,2,2-trifluoroethyl)-1H-indol-4-yl)amino]piperidin-1-yl}-3-methoxypropan-2-ol] the value was “+ (+ = 0 μM ≤ SC150 < 0.05 μM)”; for `CCNC(=O)c1ccc(NCC#Cc2cc3c(N[C@H]4CC[C@@H](N(C)C)CC4)cccc3n2CC(F)(F)F)c(OC)c1` [Compound 102A, N-ethyl-3-methoxy-4-{[3-(4-{[(1S,4S)-4-(dimethylamino)cyclo-hexyl]amino}-1-(2,2,2-trifluoroethyl)-1H-indol-2-yl)prop-2-yn-1-yl]amino}benzamide], “+ (+ = 0 μM ≤ SC150 < 0.05 μM)”; for `COc1cc(S(N)(=O)=O)ccc1NCC#Cc1cc2c(NC3CCN(C[C@H](O)CO)CC3)cccc2n1CC(F)(F)F` [Compound 549A, (rac)-4-({3-[4-({1-[2,3-dihydroxypropyl]piperidin-4-yl}amino)-1-(2,2,2-trifluoroethyl)-1H-indol-2-yl]prop-2-yn-1-yl}amino)-3-methoxybenzene-1-sulfonamide], “+ (+ = 0 μM ≤ SC150 < 0.05 μM)”.
With `COc1cc(-c2nccs2)ccc1NCC#Cc1cc2c(NC3CCN(C)CC3)cccc2n1CC(F)(F)F` [Compound 509A, 2-(3-{[2-methoxy-4-(1,3-thiazol-2-yl)phenyl]amino}prop-1-yn-1-yl)-N-(1-methylpiperidin-4-yl)-1-(2,2,2-trifluoroethyl)-1H-indol-4-amine], the “SC150 (concentration of the compound required to increase the DNA binding activity by 50%)” value is “+ (+ = 0 μM ≤ SC150 < 0.05 μM)”.
Turning to `CCS(=O)(=O)c1ccc(NCC#Cc2cc3c(NC4CCN(CC(O)COC)CC4)cccc3n2CC(F)(F)F)c(OC)c1` (stereo not shown) [Compound 662A, 1-(4-{[2-(3-{[4-(ethanesulfonyl)-2-methoxyphenyl]amino}prop-1-yn-1-yl)-1-(2,2,2-trifluoroethyl)-1H-indol-4-yl]amino}piperidin-1-yl)-3-methoxypropan-2-ol], the “SC150 (concentration of the compound required to increase the DNA binding activity by 50%)” value was “+ (+ = 0 μM ≤ SC150 < 0.05 μM)”.
The same measure for `COc1cc(C(=O)N(C)C)ccc1NCC#Cc1cc2c(N[C@H]3CCN(C)C[C@H]3F)cccc2n1CC(F)(F)F` (racemic) [Compound 815A, rac-4-{[3-(4-{[(3R,4S)-3-fluoro-1-methylpiperidin-4-yl]amino}-1-(2,2,2-trifluoroethyl)-1H-indol-2-yl)prop-2-yn-1-yl]amino}-3-methoxy-N,N-dimethylbenzamide]: “+ (+ = 0 μM ≤ SC150 < 0.05 μM)”; for `COCCN(C)[C@H]1CC[C@@H](Nc2cccc3c2cc(C#CCNc2ccc(S(N)(=O)=O)cc2OCC#N)n3CC(F)(F)F)CC1` [Compound 165A, 3-(cyanomethoxy)-4-{[3-(4-{[(1S,4S)-4-[(2-methoxyethyl)(methyl)amino]cyclohexyl]amino}-1-(2,2,2-trifluoroethyl)-1H-indol-2-yl)prop-2-yn-1-yl]amino}benzene-1-sulfonamide]: “+ (+ = 0 μM ≤ SC150 < 0.05 μM)”.
For `COc1cc(S(=O)(=O)Nc2cc(C)on2)ccc1NCC#Cc1cc2c(N[C@H]3CC[C@H](N(C)C)CC3)cccc2n1CC(F)(F)F` [Compound 55A, 3-methoxy-N-(5-methyl-1,2-oxazol-3-yl)-4-{[3-(4-{[(1R,4R)-4-(dimethylamino)cyclohexyl]amino}-1-(2,2,2-trifluoroethyl)-1H-indol-2-yl)prop-2-yn-1-yl]amino}benzene-1-sulfonamide] the value was “+ (+ = 0 μM ≤ SC150 < 0.05 μM)”; for `COCCN(C)[C@H]1CC[C@H](Nc2cccc3c2cc(C#CCNc2ccc(S(C)(=O)=O)cc2OC)n3CC(F)(F)F)CC1` [Compound 57A, (1R,4R)-N^4-(2-{3-[(4-methanesulfonyl-2-methoxyphenyl)amino]prop-1-yn-1-yl}-1-(2,2,2-trifluoro-ethyl)-1H-indol-4-yl)-N^1-(2-methoxyethyl)-N^1-methylcyclohexane-1,4-diamine], “+ (+ = 0 μM ≤ SC150 < 0.05 μM)”.
The same measure for `CN1CC[C@H](Nc2cccc3c2cc(C#CCNc2ccc(S(C)(=O)=O)cc2OCF)n3CC(F)(F)F)[C@H](F)C1` [Compound 841A]: “+ (+ = 0 μM ≤ SC150 < 0.05 μM)”; for `COc1cc(S(N)(=O)=O)ccc1NCC#Cc1cc2c(NC3CCOCC3)cc(F)cc2n1CC(F)(F)F` [Compound 998A, 4-[(3-{6-fluoro-4-[(oxan-4-yl)amino]-1-(2,2,2-trifluoroethyl)-1H-indol-2-yl}prop-2-yn-1-yl)amino]-3-methoxybenzene-1-sulfonamide]: “+ (+ = 0 μM ≤ SC150 < 0.05 μM)”.
For the compound `COc1cc(S(=O)(=O)Nc2ccon2)ccc1NCC#Cc1cc2c(NC3CCS(=O)(=O)CC3)cccc2n1CC(F)(F)F` [Compound 1039A, 4-[(3-{4-[(1,1-dioxo-1λ^6-thian-4-yl)amino]-1-(2,2,2-trifluoroethyl)-1H-indol-2-yl}prop-2-yn-1-yl)amino]-3-methoxy-N-(1,2-oxazol-3-yl)benzene-1-sulfonamide], the “SC150 (concentration of the compound required to increase the DNA binding activity by 50%)” value is listed as “+ (+ = 0 μM ≤ SC150 < 0.05 μM)”.
As for `COc1cc(S(=O)(=O)NCC(O)CO)ccc1NCC#Cc1cc2c(NC3CCS(=O)(=O)CC3)cccc2n1CC(F)(F)F` (stereo not shown) [Compound 1042A, N-(2,3-dihydroxypropyl)-4-[(3-{4-[(1,1-dioxo-1λ^6-thian-4-yl)amino]-1-(2,2,2-trifluoroethyl)-1 H-indol-2-yl}prop-2-yn-1-yl)amino]-3-methoxybenzene-1-sulfonamide], the “SC150 (concentration of the compound required to increase the DNA binding activity by 50%)” value is recorded as “+ (+ = 0 μM ≤ SC150 < 0.05 μM)”.
For `COc1cc(S(C)(=O)=O)ccc1NCC#Cc1cc2c(N(C)[C@H]3CCN(C)C[C@H]3F)cccc2n1CC(F)(F)F` (racemic) [Compound 831A, rac-N-[(3R,4S)-3-fluoro-1-methylpiperidin-4-yl]-2-{3-[(4-methanesulfonyl-2-methoxyphenyl)amino]prop-1-yn-1-yl}-N-methyl-1-(2,2,2-trifluoroethyl)-1H-indol-4-amine] the value was “+ (+ = 0 μM ≤ SC150 < 0.05 μM)”; for `CS(=O)(=O)c1ccc(OCC#Cc2cc3c(N[C@H]4CC[C@@H](N5CC6(COC6)C5)CC4)cccc3n2CC(F)(F)F)c(N)c1` [Compound 233A, 2-[3-(2-amino-4-methanesulfonyl-phenoxy)prop-1-yn-1-yl]-N-[(1S,4S)-4-{2-oxa-6-azaspiro[3.3]heptan-6-yl}cyclohexyl]-1-(2,2,2-trifluoroethyl)-1H-indol-4-amine], “++ (++ = 0.05 μM ≤ SC150 < 0.1 μM)”; for `COc1cc(C(F)(F)F)ccc1NCC#Cc1cc2c(N[C@H]3CC[C@H](N(C)C)CC3)cccc2n1CC(F)(F)F` [Compound 134A, (1R,4R)—N^4-[2-(3-{[2-methoxy-4-(trifluoromethyl)phenyl]amino}prop-1-yn-1-yl)-1-(2,2,2-trifluoroethyl)-1H-indol-4-yl]-N^1,N^1-dimethylcyclohexane-1,4-diamine], “+ (+ = 0 μM ≤ SC150 < 0.05 μM)”.
The same measure for `COc1cc(S(N)(=O)=O)ccc1NCC#Cc1cc2c(NC3CCN(CCOC(=O)C(C)C)CC3)cccc2n1CC(F)(F)F` [Compound 600A, 2-{4-[(2-{3-[(2-methoxy-4-sulfamoylphenyl)amino]prop-1-yn-1-yl}-1-(2,2,2-trifluoroethyl)-1H-indol-4-yl)amino]piperidin-1-yl}EtOAc]: “+ (+ = 0 μM ≤ SC150 < 0.05 μM)”.
For the compound `COc1cc(S(C)(=O)=O)ccc1NCC#Cc1cc2c(N[C@@H]3CC[C@H](N(C)C)C[C@H]3F)cccc2n1CC(F)(F)F` [Compound 938A], the “SC150 (concentration of the compound required to increase the DNA binding activity by 50%)” value is on record as “+ (+ = 0 μM ≤ SC150 < 0.05 μM)”.
For `COc1cc(S(N)(=O)=O)ccc1NCC#Cc1cc2c(NC3CCN(C(C)=O)CC3)cccc2n1CC(F)(F)F` [Compound 749A, 4-[(3-{4-[(1-acetylpiperidin-4-yl)amino]-1-(2,2,2-trifluoroethyl)-1H-indol-2-yl}prop-2-yn-1-yl)amino]-3-methoxybenzene-1-sulfonamide] the value was “+ (+ = 0 μM ≤ SC150 < 0.05 μM)”; for `COc1cc(S(C)(=O)=O)ccc1NCC#Cc1cc2c(NC3CCN(C(C)C)CC3)cccc2n1CC(F)(F)F` [Compound 542A, 2-{3-[(4-methanesulfonyl-2-methoxyphenyl)amino]prop-1-yn-1-yl}-N-[1-(propan-2-yl)piperidin-4-yl]-1-(2,2,2-trifluoroethyl)-1H-indol-4-amine], “+ (+ = 0 μM ≤ SC150 < 0.05 μM)”; for `COc1cc(C(=O)NCC(COC(=O)C(C)C)OC(=O)C(C)C)ccc1NCC#Cc1cc2c(N[C@@H]3CCN(C)C[C@@H]3F)cccc2n1CC(F)(F)F` (stereo partly drawn) [Compound 967A, 1-[(4-{[3-(4-{[(3S,4R)-3-fluoro-1-methylpiperidin-4-yl]amino}-1-(2,2,2-trifluoroethyl)-1H-indol-2-yl)prop-2-yn-1-yl]amino}-3-methoxyphenyl)formamido]-3-[(2-methylpropanoyl)oxy]propan-2-yl 2-methylpropanoate], “+ (+ = 0 μM ≤ SC150 < 0.05 μM)”.

Source of the values: patent US12428406B2 (PMV Pharmaceuticals, Inc., priority 2019, dated 2025).
